Values of other authors, collected in paper PMC6510909 (Investigational New Drugs, 2018).
Like-named read-outs stand apart in the source and are kept apart here.

What was measured:
[1] = system: patients with metastatic pancreatic cancer that was refractory to gemcitabine; set-up: method as in PMID 26351344; conditions: with capecitabine, cited from earlier work
[2] = system: patients with advanced/metastatic pancreatic cancer; set-up: method as in earlier work; conditions: JANUS-1 interim analysis; P = 0.409; cited from earlier work
[3] = system: patients with advanced/metastatic pancreatic cancer; set-up: method as in earlier work; conditions: JANUS-2 interim analysis; P = 0.942; cited from earlier work
pancreatic cancer = conditions: nab-P + G group, MPACT trial; cited from earlier work

Row | Molecule | HR for OS, ruxolitinib vs placebo ([1]; overall study population, P = 0.25) | HR for OS, ruxolitinib vs placebo ([1]; subgroup with C-reactive peptide >13 mg/L, P = 0.011) | HR for OS, ruxolitinib vs placebo [2] | HR for OS, ruxolitinib vs placebo [3] | Median OS (pancreatic cancer)
1 | N#CC[C@H](C1CCCC1)n1cc(-c2ncnc3[nH]ccc23)cn1 [ruxolitinib] | 0.79 [95% CI, 0.53–1.18] | 0.47 [95% CI, 0.26–0.85] | 0.969 [95% CI, 0.75–1.26] | 1.584 [95% CI, 0.89–2.83] | 
2 | albumin-bound paclitaxel + gemcitabine [nab-P + G] |  |  |  |  | 8.5 months
